Results on two compounds are retold here after patent US20230114123A1, “METHOD OF STIMULATING ASYMMETRIC DIVISION OF SATELLITE STEM CELLS” (Ottawa Hospital Research Institute, priority 2017, published 2023).

Holding throughout (type): cell-based, mouse
One experiment relates to EGFR phosphorylation. Nature of the experiment: p-EGFR immunoblot in serum-starved, re-fed primary myoblasts. The settings on record: 1 h. The method, then:
Cell Culture and Co-Immunoprecipitation. Satellite cells were isolated from WT mice by fluorescence activated cell sorting and cultured as primary myoblasts on collagen-coated plates in primary myoblast growth media (Ham's F10 media (Gibco) with 20% FBS (Wisent), 1% penicillin-streptomycin (Gibco) and 5 ng/mL bFGF (Cedarlane)).
Immunoblotting. Proteins were separated on 10% SDS-PAGE and transferred to Immobilon-P PVDF membrane (EMD Millipore). Membranes were probed with primary antibodies, followed by light chain specific HRP-conjugated secondary antibodies at 1:5000 (Bio-Rad) and developed using Immobilon Western HRP substrate (EMD Millipore). Membranes were visualized using FluorChem HD2 (Alpha Innotech) or exposed to BIOMAX film (Eastman Kodak).

In experiment [1] the test system is phosphorylated EGFR (p-EGFR). Nature of the experiment: p-EGFR immunostaining of mdx EDL myofibers. The settings on record: 1 h with or without recombinant EGF 100 ng/mL, FIG. 3A. The procedure:
Therefore, the inventors conclude that that EGFR signaling occurs normally in mdx satellite cells.
To assess the signaling status of EGFR in quiescent satellite cells, EDL muscles were fixed in 4% PFA immediately post-dissection. Myofiber bundles were teased from the fixed muscles by tweezers.
Immunostaining and Antibodies. EDL myofibers were fixed for 10 min in 2% PFA and washed with PBS. Fibers were blocked and permeablized in horse serum blocking buffer (5% horse serum, 1% BSA (Sigma), and 0.5% Triton X-100 (Sigma) in PBS) for 1 h at room temperature or at 4° C. over night. Primary antibodies were applied in blocking solution for 2 h at room temperature or at 4° C. over night. Samples were subsequently washed with PBS and stained with appropriate fluorescently labeled secondary antibodies (Alexa fluor 488, 546, or 647) for 1 h at room temperature. After washing with PBS, samples were mounted with Permafluor (Fisher).

The subject of another experiment is satellite cells. As to the kind of experiment: Mitotic orientation by p-Aurk centrosome staining, EDL myofibers 36 h. The settings on record: 36 h culture, recombinant EGF vs vehicle, FIGS. 2B and 2C.
For a further experiment, the system named is mdx satellite cells. As to the kind of experiment: Mitotic orientation by p-Aurk staining, mdx myofibers 36 h. As to conditions: 36 h culture, recombinant EGF vs vehicle, FIG. 3B. The procedure:
However, the rate of abnormal cell divisions in mdx satellite cells as evidenced by abnormal patterns of p-Aurk staining was unaffected by EGF stimulation. This observation implies that cell cycle dysregulation is not completely rescued by polarity signaling alone. […] Therefore, to assess whether EGF-driven asymmetric divisions could ameliorate the reduced generation of myogenic progenitors in mdx cultures, single EDL myofibers from mdx mice were cultured for 72 h and immunostained for the expression of Myog.
Characterization of Satellite Cell Divisions. The orientation of mitotic spindles in satellite cells was measured as described in Dumont et al. (2015). Single myofibers were fixed after 36 h of in vitro culture, as described above. Satellite cells were identified by Pax7 expression in the nucleus, as detected by immunofluorescene. Pax7 staining becomes cytoplasmic in mitotic satellite cells after the dissociation of the nuclear envelope, but is still discernable. […] Mitotic satellite cells with p-Aurk staining patterns that were not observed in WT cells, including monopolar, multipolar (>2), and abscission defects were quantified as abnormal. Mitotic orientations were manually counted according to the angle between the mitotic spindle and the tangential plane of the satellite cell's attachment point to the myofiber.

In the case of `CCc1oc2cc(S(=O)(=O)Nc3ccc(S(=O)(=O)Nc4nccs4)cc3)ccc2c1C(=O)c1cc(Br)c(O)c(Br)c1` [PTP1b inhibitor, 3-(3,5-dibromo-4-hydroxy-benzoyl)-2-ethyl-benzofuran-6-sulfonicacid-(4-(thiazol-2-ylsulfamyl)-phenyl)-amide, reference compound], the “increase in EGFR phosphorylation (p-EGFR grey values)” value with EGFR phosphorylation (growth media alone, FIGS. 12A and 12B) is reported as 80%; in the experiment on EGFR phosphorylation (in the presence of added recombinant EGF), 20%.

“EGF: human recombinant EGF protein (Life Technologies), direct activator of the EGFR pathway”: the “p-EGFR staining in mdx fibers” value in experiment [1] is given as “P-EGFR was only observed in mdx fibers treated with EGF”. Also, in the experiment on satellite cells, the “increase in the proportion of mitotic cells aligned along the apicobasal axis” value is listed as 50%. Further, in the experiment with mdx satellite cells, the “numbers of apicobasal orientated mitotic centrosomes, mdx satellite cells” value was “increased numbers of apicobasal orientated mitotic centrosomes” and the “rate of abnormal cell divisions (abnormal patterns of p-Aurk staining), mdx satellite cells” value is reported as “unaffected”.
